The test has as its target T1, LPL:sGPIHBP1 complex (Homo sapiens, UniProt P06858).
T1 sequence (P06858 28-475): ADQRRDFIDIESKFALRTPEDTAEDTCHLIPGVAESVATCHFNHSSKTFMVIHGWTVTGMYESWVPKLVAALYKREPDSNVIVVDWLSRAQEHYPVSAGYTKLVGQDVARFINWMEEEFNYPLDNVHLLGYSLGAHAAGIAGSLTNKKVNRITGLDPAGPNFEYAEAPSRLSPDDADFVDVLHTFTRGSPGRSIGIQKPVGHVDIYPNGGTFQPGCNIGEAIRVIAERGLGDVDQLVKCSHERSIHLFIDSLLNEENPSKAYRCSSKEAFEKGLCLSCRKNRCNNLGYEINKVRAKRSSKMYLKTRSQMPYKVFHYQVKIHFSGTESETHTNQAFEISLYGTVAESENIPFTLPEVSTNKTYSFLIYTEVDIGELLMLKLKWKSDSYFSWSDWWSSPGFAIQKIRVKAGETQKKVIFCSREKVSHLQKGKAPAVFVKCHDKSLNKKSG
T1 sequence (Q8IV16 21-151 partner limits assumed): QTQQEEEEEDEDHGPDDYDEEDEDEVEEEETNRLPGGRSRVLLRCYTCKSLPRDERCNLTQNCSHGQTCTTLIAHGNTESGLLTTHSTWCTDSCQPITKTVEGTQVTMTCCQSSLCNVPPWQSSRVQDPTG
The test can be described thus: RB assay (LPL:sGPIHBP1 pre-incubated with ANGPTL4, RB substrate). The format is biochemical. The following applies: read-out: RB qAC50. As to the method: The assay was performed in black 1536-well plates using purified proteins. To identify compounds that stimulate LPL activity either by directly activating LPL or by inhibiting the antagonist ANGPTL4, the LPL:sGPIHBP1 complex was pre-incubated with ANGPTL4 to decrease LPL activity by 80%. After a 60 min pre-incubation, the reaction was started by adding the RB substrate. 30 min after RB addition, the enzymatic reaction was stopped using SDS. Fluorescence intensity was measured 2 h after stopping the reaction.
20 or 40 nl of compound solution in 100% DMSO were placed in test plate. Then was added LPL:sGPIHBP1 to all wells (diluted in assay buffer to 5 nM; 2 μl/well). This was followed by an addition of ANGPTL4 to compounds and neutral controls (diluted in assay buffer to 20 nM; 1 μl/well). A buffer solution was added to the stimulator control (1 μl/well). The plates were then centrifuged and pre-incubated for 60 min at RT. The reaction was started by adding substrate to all wells (diluted in assay buffer to 40 μM, 1 μl/well). The plated were centrifuged (800 rpm for 1 min) and incubated 30 min at RT (=reaction time). The reaction was stopped by adding SDS to all wells (diluted in water to 2.5%, 2 μl/well); incubated 2 h at RT. The fluorescence intensity (ex 540 nm/em 590 nm) was measured on a Pherastar (BMG) using 5 flashes.
Regarding `O=C(O)Cc1cc(F)ccc1NC(=O)c1ccc(N2CCCCC2)c(NC(=O)c2nn(CC(F)(F)F)c3ccc(F)cc23)c1` [Compound 138, 2-(5-fluoro-2-(3-(5-fluoro-1-(2,2,2-trifluoroethyl)-1H-indazole-3-carboxamido)-4-(piperidin-1-yl)benzamido)phenyl)acetic acid], the EC50 stood at 4.8 µM.

Turning to `Cc1cccc2c1c(C(=O)Nc1cc(C(=O)Nc3ccc(F)cc3CC(=O)O)ccc1N1CCCCC1)nn2CC(F)(F)F` [Compound 141, 2-(5-fluoro-2-(3-(4-methyl-1-(2,2,2-trifluoroethyl)-1H-indazole-3-carboxamido)-4-(piperidin-1-yl)benzamido)phenyl)acetic acid], the EC50 was greater than 25 µM.

For `Cc1ccc2c(c1)c(C(=O)Nc1cc(C(=O)Nc3ccc(F)cc3CC(=O)O)ccc1N1CCCCC1)nn2CC(F)(F)F` [Compound 142, 2-(5-fluoro-2-(3-(5-methyl-1-(2,2,2-trifluoroethyl)-1H-indazole-3-carboxamido)-4-(piperidin-1-yl)benzamido)phenyl)acetic acid], the EC50 is greater than 7.1 µM.

Take `Cc1ccc2c(C(=O)Nc3cc(C(=O)Nc4ccc(F)cc4CC(=O)O)ccc3N3CCCCC3)nn(CC(F)(F)F)c2c1` [Compound 143, 2-(5-fluoro-2-(3-(6-methyl-1-(2,2,2-trifluoroethyl)-1H-indazole-3-carboxamido)-4-(piperidin-1-yl)benzamido)phenyl)acetic acid]: the EC50 came out at 5 µM.

In the case of `Cc1cccc2c(C(=O)Nc3cc(C(=O)Nc4ccc(F)cc4CC(=O)O)ccc3N3CCCCC3)nn(CC(F)(F)F)c12` [Compound 144, 2-(5-fluoro-2-(3-(7-methyl-1-(2,2,2-trifluoroethyl)-1H-indazole-3-carboxamido)-4-(piperidin-1-yl)benzamido)phenyl)acetic acid], the EC50 amounted to 5.8 µM.

With `O=C(O)Cc1cc(F)ccc1NC(=O)c1ccc(N2CCCCC2)c(NC(=O)c2nn(CC(F)(F)F)c3c2CCC3)c1` [Compound 145, 2-(5-fluoro-2-(4-(piperidin-1-yl)-3-(1-(2,2,2-trifluoroethyl)-1,4,5,6-tetrahydrocyclopenta[c]pyrazole-3-carboxamido)benzamido)phenyl)acetic acid], the EC50 stood at 15 µM.

Consider `CC(n1nc(C(=O)Nc2cc(C(=O)Nc3ccc(F)cc3CC(=O)O)ccc2N2CCCCC2)c2ccccc21)C(F)(F)F` (centres unmarked) [Compound 146, 2-(5-fluoro-2-(4-(piperidin-1-yl)-3-(1-(1,1,1-trifluoropropan-2-yl)-1H-indazole-3-carboxamido)benzamido)phenyl)acetic acid], for which the EC50 is greater than 7.1 µM.

Take `CC(C1CCOCC1)n1nc(C(=O)Nc2cc(C(=O)Nc3ccc(F)cc3CC(=O)O)ccc2N2CCCCC2)c2ccccc21` (centres unmarked) [Compound 148, 2-(5-fluoro-2-(4-(piperidin-1-yl)-3-(1-(1-(tetrahydro-2H-pyran-4-yl)ethyl)-1H-indazole-3-carboxamido)benzamido)phenyl)acetic acid]: the EC50 is greater than 25 µM.

In the case of `O=C(O)Cc1cc(C(F)(F)F)ccc1NC(=O)c1ccc(N2CCCCC2)c(NC(=O)c2nn(CC(F)(F)F)c3ccccc23)c1` [Example 22], the EC50 is 4.3 µM.

With `CCC(C(=O)O)c1cc(F)ccc1NC(=O)c1ccc(N2CCCCC2)c(NC(=O)c2nn(CC(F)(F)F)c3ccccc23)c1` (centres unmarked) [Example 28], the EC50 came out at 4.2 µM.

On to `O=C(O)Cc1cc(F)ccc1NC(=O)c1ccc(N2CCC(F)(F)CC2)c(NC(=O)c2nn(CC(F)(F)F)c3ccccc23)c1` [Example 40], for which the EC50 is 3.5 µM.

With `N#CC1CCN(c2ccc(C(=O)Nc3ccc(F)cc3CC(=O)O)cc2NC(=O)c2nn(CC(F)(F)F)c3ccccc23)CC1` [Example 48], the EC50 was greater than 25 µM.

With `O=C(O)Cc1cc(F)ccc1NC(=O)c1ccc(N2CC3(CCC3)C2)c(NC(=O)c2nn(CC(F)(F)F)c3ccccc23)c1` [Example 49], the EC50 stood at 20 µM.

Consider `O=C(O)Cc1cc(F)ccc1NC(=O)c1ccc(N2CCCC2)c(NC(=O)c2nn(CC(F)(F)F)c3ccccc23)c1` [Example 50], for which the EC50 worked out at 24 µM.

For `O=C(O)Cc1cc(F)ccc1NC(=O)c1ccc(N2CC3CC3C2)c(NC(=O)c2nn(CC(F)(F)F)c3ccccc23)c1` (centres unmarked) [Example 52], the EC50 worked out at 5 µM.

For `O=C(O)Cc1cc(F)ccc1NC(=O)c1ccc(N2CCC3(CC3)C2)c(NC(=O)c2nn(CC(F)(F)F)c3ccccc23)c1` [Example 53], the EC50 came out at 6.8 µM.

For the molecule `O=C(O)Cc1cc(F)ccc1NC(=O)c1ccc(N2C3CCC2CC3)c(NC(=O)c2nn(CC(F)(F)F)c3ccccc23)c1` [Example 54], the EC50 came out at 6.9 µM.

For the molecule `O=C(O)Cc1cc(F)ccc1NC(=O)c1ccc(N2CCOCC2)c(NC(=O)c2nn(CC(F)(F)F)c3ccccc23)c1` [Example 56], the EC50 was 15 µM.

Turning to `CN1CCN(c2ccc(C(=O)Nc3ccc(F)cc3CC(=O)O)cc2NC(=O)c2nn(CC(F)(F)F)c3ccccc23)CC1` [Example 57], the EC50 was greater than 7.1 µM.

As to `O=C(O)Cc1cc(F)ccc1NC(=O)c1ccc(N2CCCCC2=O)c(NC(=O)c2nn(CC(F)(F)F)c3ccccc23)c1` [Example 59], the EC50 was greater than 25 µM.

`O=C(O)Cc1cc(F)ccc1NC(=O)c1ccc(N2CCOC2=O)c(NC(=O)c2nn(CC(F)(F)F)c3ccccc23)c1` [Example 60]: the EC50 was greater than 25 µM.

As for `CC1(C)CCN(c2ccc(C(=O)Nc3ccc(F)cc3CC(=O)O)cc2NC(=O)c2nn(CC(F)(F)F)c3ccccc23)CC1` [Example 61], the EC50 was 3.6 µM.

For the molecule `O=C(O)Cc1cc(F)ccc1NC(=O)c1ccc(N2CCCC(F)(F)C2)c(NC(=O)c2nn(CC(F)(F)F)c3ccccc23)c1` [Example 62], the EC50 was greater than 7.1 µM.

In the case of `COC1CCN(c2ccc(C(=O)Nc3ccc(F)cc3CC(=O)O)cc2NC(=O)c2nn(CC(F)(F)F)c3ccccc23)CC1` [Example 65], the EC50 was greater than 7.1 µM.

On to `O=C(O)Cc1cc(F)ccc1NC(=O)c1ccc(N2CCS(=O)(=O)CC2)c(NC(=O)c2nn(CC(F)(F)F)c3ccccc23)c1` [Example 66], for which the EC50 was greater than 25 µM.

Regarding `CC1CCCC(C)N1c1ccc(C(=O)Nc2ccc(F)cc2CC(=O)O)cc1NC(=O)c1nn(CC(F)(F)F)c2ccccc12` (centres unmarked) [Example 68], the EC50 is greater than 7.1 µM.

Consider `NC(=O)C1CCCCN1c1ccc(C(=O)Nc2ccc(F)cc2CC(=O)O)cc1NC(=O)c1nn(CC(F)(F)F)c2ccccc12` (centres unmarked) [Example 71], for which the EC50 was greater than 7.1 µM.

As for `CC1CC(C)CN(c2ccc(C(=O)Nc3ccc(F)cc3CC(=O)O)cc2NC(=O)c2nn(CC(F)(F)F)c3ccccc23)C1` (centres unmarked) [Example 74], the EC50 was greater than 7.1 µM.

With `O=C(O)Cc1cc(F)ccc1NC(=O)c1ccc(N2CCC(O)CC2)c(NC(=O)c2nn(CC(F)(F)F)c3ccccc23)c1` [Example 75], the EC50 was greater than 25 µM.

These data come from US20250092014A1, “COMPOUNDS AND METHODS OF ACTIVATING LIPOPROTEIN LIPASE” (Metrea Biosciences, Inc., priority 2021, published 2025).
